One may read the IC50 as the concentration needed to halve the response being measured. Low values mean higher potency, high ones lower potency.

These results are taken from patent publication US9504669B2, “Spliceostatin analogs and methods for their preparation” (PFIZER INC., priority 2012, dated 2016).

Counter-ions that a name gives are not always drawn.

Holding throughout (format): cell-based
Details in all cases: free compounds (natural products and synthetic analogs), cell viability 96 hours after treatment

In assay [1] the test system is BT474 (breast cancer) cells. Nature of the assay: In vitro cell assay (MTS cell viability), BT474. How it is done:
Target expressing (BT474 (breast cancer), N87 (gastric cancer), HCC1954 (breast cancer), MDA-MB-361-DYT2 (breast cancer)) or non-expressing (MDA-MB-468) cells were seeded in 96-well cell culture plates for 24 hours before treatment. Cells were treated with 3-fold serially diluted antibody-drug conjugates or free compounds (i.e., no antibody conjugated to the drug) in duplicate at 10 concentrations. Cell viability was determined by CellTiter 96® AQueous One Solution Cell Proliferation MTS Assay (Promega, Madison Wis.) 96 hours after treatment. Relative cell viability was determined as percentage of untreated control. IC50 values were calculated using a four parameter logistic model #203 with XLfit v4.2 (IDBS, Guildford, Surry, UK). The potency ranged upward from 0.0002 nm. Similar procedures and techniques were employed.

Assay [2] deals with MDA-MB-361-DYT2 (breast cancer) cells. Nature of the assay: In vitro cell assay (MTS cell viability), MDA-MB-361-DYT2. The essentials:
(§1)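 Cells seeded 24 h, then treated with antibody-drug conjugates or free drug, 3-fold serial dilutions at 10 concentrations in duplicate. Viability by MTS at 96 h as percent of untreated control; IC50 from four-parameter logistic fit.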

Assay [3] concerns N87 (gastric cancer) cells. Description: In vitro cell assay (MTS cell viability), N87. Put shortly:
as §1

For `CC(=O)O[C@@H](C)/C=C\C(=O)N[C@@H]1C[C@H](C)[C@H](C/C=C(C)/C=C/[C@@H]2C[C@]3(CO3)C[C@@H](CC(=O)N[C@H]3CC[C@H](N(C)C)CC3)O2)O[C@@H]1C` (relative stereo) [#B87, (2S,3Z)-5-{[(2R,3R,5S,6S)-6-{(2E,4E)-5-[(3S,5S,7S)-7-(2-{[trans-4-(dimethylamino)cyclohexyl]amino}-2-oxoethyl)-1,6-dioxaspiro[2.5]oct-5-yl]-3-methylpenta-2,4-dien-1-yl}-2,5-dimethyltetrahydro-2H-pyran-3-yl]amino}-5-oxopent-3-en-2-yl acetate], the IC50 in assay [1] was 1.21 nM; in assay [2], 3.47 nM; in assay [3] it was 0.744 nM.

As for `CC(=O)O[C@@H](C)/C=C\C(=O)N[C@@H]1C[C@H](C)[C@H](C/C=C(C)/C=C/[C@@H]2C[C@]3(CO3)C[C@@H](CC(=O)N[C@H]3CC[C@@H](N(C)C)CC3)O2)O[C@@H]1C` (relative stereo) [#B90, (2S,3Z)-5-{[(2R,3R,5S,6S)-6-{(2E,4E)-5-[(3S,5S,7S)-7-(2-{[cis-4-(dimethylamino)cyclohexyl]amino}-2-oxoethyl)-1,6-dioxaspiro[2.5]oct-5-yl]-3-methylpenta-2,4-dien-1-yl}-2,5-dimethyltetrahydro-2H-pyran-3-yl]amino}-5-oxopent-3-en-2-yl acetate], the values for the IC50 in assay [1], in assay [2] and in assay [3] were 1.26 nM, 3.9 nM and 0.87 nM, respectively.

As to `CC(=O)O[C@@H](C)/C=C\C(=O)N[C@@H]1C[C@H](C)[C@H](C/C=C(C)/C=C/[C@@H]2C[C@]3(CO3)C[C@@H](CC(=O)NN)O2)O[C@@H]1C` [#B7, (2S,3Z)-5-{[(2R,3R,5S,6S)-6-{(2E,4E)-5-[(3S,5S,7S)-7-(2-hydrazinyl-2-oxoethyl)-1,6-dioxaspiro[2.5]oct-5-yl]-3-methylpenta-2,4-dien-1-yl}-2,5-dimethyltetrahydro-2H-pyran-3-yl]amino}-5-oxopent-3-en-2-yl acetate], the IC50 in assay [1] (Homo sapiens, BT-474) was 1.12 nM; in assay [2] (96 h), 1.88 nM; in assay [3] (96 h) it was 0.344 nM.

On to `CC(=O)O[C@@H](C)/C=C\C(=O)N[C@@H]1C[C@H](C)[C@H](C/C=C(C)/C=C/[C@H]2O[C@H](CC(=O)NCCO)C[C@@]3(CO3)[C@@H]2O)O[C@@H]1C` [#B8, (2S,3Z)-5-{[(2R,3R,5S,6S)-6-{(2E,4E)-5-[(3R,4R,5R,7S)-4-hydroxy-7-{2-[(2-hydroxyethyl)amino]-2-oxoethyl}-1,6-dioxaspiro[2.5]oct-5-yl]-3-methylpenta-2,4-dien-1-yl}-2,5-dimethyltetrahydro-2H-pyran-3-yl]amino}-5-oxopent-3-en-2-yl acetate], for which the IC50 in assay [1] (Homo sapiens, BT-474) was 14.1 nM; in assay [2] (96 h) it was 25.5 nM; in assay [3] (96 h), 10.7 nM.

On to `CC(=O)O[C@@H](C)/C=C\C(=O)N[C@@H]1C[C@H](C)[C@H](C/C=C(C)/C=C/[C@H]2O[C@H](CC(N)=O)C[C@@]3(CO3)[C@@H]2O)O[C@@H]1C` [#B9, (2S,3Z)-5-{[(2R,3R,5S,6S)-6-{(2E,4E)-5-[(3R,4R,5R,7S)-7-(2-amino-2-oxoethyl)-4-hydroxy-1,6-dioxaspiro[2.5]oct-5-yl]-3-methylpenta-2,4-dien-1-yl}-2,5-dimethyltetrahydro-2H-pyran-3-yl]amino}-5-oxopent-3-en-2-yl acetate], for which the IC50 stood at 3.26 nM in assay [1] (Homo sapiens, BT-474); 5.26 nM in assay [2] (96 h); 1.34 nM in assay [3] (96 h).

On to `CC(=O)O[C@@H](C)/C=C\C(=O)N[C@@H]1C[C@H](C)[C@H](C/C=C(C)/C=C/[C@H]2O[C@H](CC(=O)NCc3ccc(S(N)(=O)=O)cc3)C[C@@]3(CO3)[C@@H]2O)O[C@@H]1C` [#B10, (2S,3Z)-5-{[(2R,3R,5S,6S)-6-{(2E,4E)-5-[(3R,4R,5R,7S)-4-hydroxy-7-{2-oxo-2-[(4-sulfamoylbenzyl)amino]ethyl}-1,6-dioxaspiro[2.5]oct-5-yl]-3-methylpenta-2,4-dien-1-yl}-2,5-dimethyltetrahydro-2H-pyran-3-yl]amino}-5-oxopent-3-en-2-yl acetate], for which the IC50 in assay [1] (Homo sapiens, BT-474) is 43.5 nM; in assay [2] (96 h), 77.5 nM; in assay [3] (96 h) it was 12.1 nM.

On to `CC(=O)O[C@@H](C)/C=C\C(=O)N[C@@H]1C[C@H](C)[C@H](C/C=C(C)/C=C/[C@H]2O[C@H](CC(=O)NCc3ccc(N)cc3)C[C@@]3(CO3)[C@@H]2O)O[C@@H]1C` [#B11, (2S,3Z)-5-{[(2R,3R,5S,6S)-6-{(2E,4E)-5-[(3R,4R,5R,7S)-7-{2-[(4-aminobenzyl)amino]-2-oxoethyl}-4-hydroxy-1,6-dioxaspiro[2.5]oct-5-yl]-3-methylpenta-2,4-dien-1-yl}-2,5-dimethyltetrahydro-2H-pyran-3-yl]amino}-5-oxopent-3-en-2-yl acetate], for which the IC50 in assay [1] (Homo sapiens, BT-474) was determined as 3.42 nM; in assay [2] (96 h), 6.71 nM; in assay [3] (96 h), 1.61 nM.

For `CC(=O)O[C@@H](C)/C=C\C(=O)N[C@@H]1C[C@H](C)[C@H](C/C=C(C)/C=C/[C@H]2O[C@H](CC(=O)N3CCNCC3)C[C@@]3(CO3)[C@@H]2O)O[C@@H]1C` [#B12, (2S,3Z)-5-({(2R,3R,5S,6S)-6-[(2E,4E)-5-{(3R,4R,5R,7S)-4-hydroxy-7-[2-oxo-2-(piperazin-1-yl)ethyl]-1,6-dioxaspiro[2.5]oct-5-yl}-3-methylpenta-2,4-dien-1-yl]-2,5-dimethyltetrahydro-2H-pyran-3-yl}amino)-5-oxopent-3-en-2-yl acetate, acetate salt], the IC50 in assay [1] (Homo sapiens, BT-474) turned out to be 55.5 nM; in assay [2] (96 h) it was 87.8 nM; in assay [3] (96 h), 54.6 nM.

Consider `CC(=O)O[C@@H](C)/C=C\C(=O)N[C@@H]1C[C@H](C)[C@H](C/C=C(C)/C=C/[C@H]2O[C@H](CC(=O)N3CCN(C)CC3)C[C@@]3(CO3)[C@@H]2O)O[C@@H]1C` [#B13, (2S,3Z)-5-({(2R,3R,5S,6S)-6-[(2E,4E)-5-{(3R,4R,5R,7S)-4-hydroxy-7-[2-(4-methylpiperazin-1-yl)-2-oxoethyl]-1,6-dioxaspiro[2.5]oct-5-yl}-3-methylpenta-2,4-dien-1-yl]-2,5-dimethyltetrahydro-2H-pyran-3-yl}amino)-5-oxopent-3-en-2-yl acetate, acetate salt], for which the IC50 is 0.68 nM in assay [1] (Homo sapiens, BT-474); 1.93 nM in assay [2] (96 h); 0.99 nM in assay [3] (96 h).

Turning to `CC(=O)O[C@@H](C)/C=C\C(=O)N[C@@H]1C[C@H](C)[C@H](C/C=C(C)/C=C/[C@@H]2C[C@]3(CO3)C[C@@H](CC(=O)NO)O2)O[C@@H]1C` [#B22, (2S,3Z)-5-({(2R,3R,5S,6S)-6-[(2E,4E)-5-{(3S,5S,7S)-7-[2-(hydroxyamino)-2-oxoethyl]-1,6-dioxaspiro[2.5]oct-5-yl}-3-methylpenta-2,4-dien-1-yl]-2,5-dimethyltetrahydro-2H-pyran-3-yl}amino)-5-oxopent-3-en-2-yl acetate], the IC50 was 1.76 nM in assay [1] (Homo sapiens, BT-474); 7.46 nM in assay [2] (96 h); 4.23 nM in assay [3] (96 h).

In the case of `CC(/C=C/[C@@H]1C[C@]2(CO2)C[C@@H](CC(N)=O)O1)=C\C[C@@H]1O[C@H](C)[C@H](NC(=O)/C=C\[C@H](C)O)C[C@@H]1C` [#B39, (2Z,4S)—N-[(2R,3R,5S,6S)-6-{(2E,4E)-5-[(3S,5S,7S)-7-(2-amino-2-oxoethyl)-1,6-dioxaspiro[2.5]oct-5-yl]-3-methylpenta-2,4-dien-1-yl}-2,5-dimethyltetrahydro-2H-pyran-3-yl]-4-hydroxypent-2-enamide], the IC50 in assay [1] (Homo sapiens, BT-474) was found to be 3.4 nM; in assay [2] (96 h), 7.67 nM; in assay [3] (96 h), 4.65 nM.

In the case of `CC(/C=C/[C@@H]1C[C@]2(CO2)C[C@@H](CC(N)=O)O1)=C\C[C@@H]1O[C@H](C)[C@H](NC(=O)/C=C\[C@H](C)OC(=O)N2CCCCC2)C[C@@H]1C` [#B40, (2S,3Z)-5-{[(2R,3R,5S,6S)-6-{(2E,4E)-5-[(3S,5S,7S)-7-(2-amino-2-oxoethyl)-1,6-dioxaspiro[2.5]oct-5-yl]-3-methylpenta-2,4-dien-1-yl}-2,5-dimethyltetrahydro-2H-pyran-3-yl]amino}-5-oxopent-3-en-2-yl piperidine-1-carboxylate], the IC50 is 1.86 nM in assay [1] (Homo sapiens, BT-474); 5.84 nM in assay [2] (96 h); 6.76 nM in assay [3] (96 h).

Regarding `COC(=O)C[C@@H]1C[C@@]2(CO2)[C@H](O)[C@@H](/C=C/C(C)=C/C[C@@H]2O[C@H](C)[C@H](NC(=O)/C=C\[C@H](C)OC(C)=O)C[C@@H]2C)O1` [#B55, methyl [(3R,5S,7R,8R)-7-{(1E,3E)-5-[(2S,3S,5R,6R)-5-{[(2Z,4S)-4-(acetyloxy)pent-2-enoyl]amino}-3,6-dimethyltetrahydro-2H-pyran-2-yl]-3-methylpenta-1,3-dien-1-yl}-8-hydroxy-1,6-dioxaspiro[2.5]oct-5-yl]acetate], the IC50 in assay [1] (Homo sapiens, BT-474) was 0.879 nM; in assay [2] (96 h) it was 1.26 nM; in assay [3] (96 h), 0.822 nM.

Take `CCCNC(=O)C[C@@H]1C[C@@]2(CO2)[C@H](O)[C@@H](/C=C/C(C)=C/C[C@@H]2O[C@H](C)[C@H](NC(=O)/C=C\[C@H](C)OC(=O)C(C)C)C[C@@H]2C)O1` [#B71, (2S,3Z)-5-({(2R,3R,5S,6S)-6-[(2E,4E)-5-{(3R,4R,5R,7S)-4-hydroxy-7-[2-oxo-2-(propylamino)ethyl]-1,6-dioxaspiro[2.5]oct-5-yl}-3-methylpenta-2,4-dien-1-yl]-2,5-dimethyltetrahydro-2H-pyran-3-yl}amino)-5-oxopent-3-en-2-yl 2-methylpropanoate]: the IC50 in assay [1] (Homo sapiens, BT-474) stood at 1.08 nM; in assay [2] (96 h) it was 1.36 nM; in assay [3] (96 h) it was 0.451 nM.
